The values below are quoted from earlier work in patent US20120101089A1, “Anti-Emetic Substance” (priority 2010, published 2012).

“Also recorded” adds a separate entry of the source. Read-outs that look alike come from different tables or passages of the source. Some results are limits rather than exact numbers.

The conditions of data set [1]: for optimal dose for PONV treatment: children older than 2 years, intravenously.
For data set [2] the following is noted: for PONV prevention versus metoclopramide 10 mg or placebo: granisetron 3 mg, tropisetron 5 mg before start of anesthesia (Naguib); for prevention of PONV versus placebo: ephedrine 0.5 mg/kg i.m., propofol […] i.v., laparoscopic surgery; for prevention of PONV symptoms: i.v. tropisetron 5 mg, droperidol 1.25 mg at the end of gynaecological surgery (Purhonen); for PONV prevention versus comparators: major gynecological surgery.

For data set [3] the following is noted: for Adverse Effect: common adverse effects associated with single agents, listed per class; for sedation, droperidol versus ondansetron groups: i.v. ondansetron 4 mg, droperidol 20 μg/kg, outpatient gynaecological laparoscopy.
Test in data set [4]: not given
This is another data set of the same source.

Regarding `Cc1nccn1CC1CCc2c(c3ccccc3n2C)C1=O` (stereo not drawn) [ondansetron, Ondansetron], the “control of vomiting and nausea during subsequent days of chemotherapy” value (single agent (Barbounis)) is reported as “progressive decline”. Besides, the “cases in which effective” value (single agent, day 1 of chemotherapy administration (Barbounis)) was “about 76%”. Besides, the “optimal dose for PONV treatment” value in data set [1] (<40 kg) is 0.1 mg/kg; in data set [1] (>40 kg), 4 mg. Also, in data set [1] (i.v. 4 mg, following gynecological laparoscopy (Polati)), the “treatment of PONV versus comparators” value is recorded as “better efficacy than intravenous metoclopramide 10 mg or placebo”. In data set [1] (repeat i.v. 4 mg in PACU after failed prophylaxis with i.v. 4 mg (Kovac)), the “control of PONV by repeat dose” value is recorded as “does not appear to offer additional control of PONV”. The “optimal effective dose for PONV” value in data set [2] (adults, intravenously at the start of anesthesia) is on record as 4 mg; in data set [2] (adults, orally 1 to 2 hours before anesthesia), 8 mg. For the same compound, the “optimal dose for PONV prevention” value in data set [2] (children older than 2 years, orally) is 0.1 mg/kg. Besides, the “prevention of vomiting versus comparators” value in data set [2] (i.v. 0.1 mg/kg, children undergoing adenotonsillectomy) is reported as “more effective in preventing vomiting than dimenhydrimate 0.5 mg/kg or placebo”. Moreover, the “efficacy by timing of administration” value in data set [2] (i.v. 4 mg, end of surgery versus before induction of anesthesia) was “significantly better when administered at the end of surgery”. Moreover, the “patients with emesis versus i.v. metoclopramide 10 mg or droperidol 0.625 mg” value in data set [2] (i.v. 8 mg prior to anesthesia (Alon and Himmelseher)) is reported as “fewer”. Besides, the “difference between ondansetron and dexamethasone administered alone” value in data set [2] (i.v. ondansetron 4 mg, dexamethasone 8 mg, major gynaecological surgery) is “No difference”. The “PONV prevention versus metoclopramide 10 mg or placebo” value in data set [2] (i.v. ondansetron 4 mg) is “significantly greater anti-emetic effectiveness than metoclopramide or placebo”. Besides, the “incidence of adverse events after additional dose” value in data set [3] (additional 4 mg postoperatively) is given as “did not result in an increased incidence of adverse events”. In data set [3], the “Adverse Effect” value is listed as “Headache, dizziness”. In data set [3], the “sedation, droperidol versus ondansetron groups” value is listed as “no difference”.

In the case of `CN[C@@H](C)[C@H](O)c1ccccc1` [ephedrine], the “prevention of PONV versus placebo” value in data set [2] was “more effective, with no haemodynamic changes, than placebo”.

For the compound `CS(=O)(=O)O.O=C(OC1C[C@@H]2CC3C[C@H](C1)N2CC3=O)c1c[nH]c2ccccc12` (stereo partly drawn) [dolasetron mesylate], the “patients with some emesis control” value (single-arm study) is reported as 65%.

`CC(CN1c2ccccc2Sc2ccccc21)N(C)C` (stereo not drawn) [promethazine]: the “Adverse Effect” value in data set [3] is “Sedation, EPS, hypotension,”.

For the compound `OCCN1CCN(CCCN2c3ccccc3Sc3ccc(Cl)cc32)CC1` [perphenazine], the “efficacy in preventing PONV versus comparator” value in data set [2] (children after tonsillectomy, prophylactic 70 μg/kg) is recorded as “more effective than dexamethasone 150 μg/kg; also recorded: equally as effective as ondansetron 150 μg/kg”. In addition, the emesis after tonsillectomy result in data set [2] (paediatric patients, prophylactic i.v. 70 μg/kg) is listed as “decreased emesis”. For the same compound, in data set [3], the “Adverse Effect” value is listed as “Sedation, EPS, hypotension,”.

With `OCCOCCN1CCN(C(c2ccccc2)c2ccc(Cl)cc2)CC1` (stereo not drawn) [hydroxyzine, Hydroxyzine], the “incidence of PONV versus droperidol” value in data set [2] (i.m. 100 mg after induction of anesthesia, non-premedicated patients) was “decrease the incidence of PONV more effectively than intramuscular droperidol 2.5 mg”. For the same compound, the “Adverse Effect” value in data set [3] is listed as “Sedation, dry mouth,”.

`CC(C)c1cccc(C(C)C)c1O` [propofol]: the “prevention of PONV by anesthetic used” value in data set [2] (0.5 mg/kg i.v., outpatient laparoscopic cholecystectomy) is “more effective in preventing PONV after sevoflurane anesthesia than desflurane anesthesia”. In data set [2] (10 mg i.v. bolus followed by infusion of 10 μg/kg/min), the “plasma concentration necessary to obtain a 50% reduction in postoperative nausea” value was 343 ng/L. Also, the “overall occurrence of PONV versus 10% Intralipid” value in data set [2] (20-hour postoperative 0.1 ml/kg/hour infusion) is listed as “less”. The “prevention of PONV versus placebo” value in data set [2] is recorded as “more effective, with no haemodynamic changes, than placebo”. The “effect on PONV” value in data set [2] (i.v. bolus 0.1 mg/kg followed by constant infusion of 1 mg/kg/hour) was “no effect on PONV”. The “PONV prophylaxis versus thiopentone 1.0 mg/kg” value in data set [2] (i.v. subhypnotic 0.5 mg/kg, first 6 hours after middle ear surgery) is “significantly better PONV prophylaxis against retching and vomiting”. Moreover, in data set [2] (intraoperative intravenous, first 6 hours postoperatively), the “prevention of PONV versus ondansetron” value is “equally as effective as intravenous ondansetron 4 mg”.

Regarding `CCN(CC)C(=O)C1CN2CCc3cc(OC)c(OC)cc3C2CC1OC(C)=O` (stereo not drawn) [benzquinamide, Benzquinamide], the “Adverse Effect” value in data set [3] was “Sedation, EPS, restlessness,”.

Regarding `O=C(CCCN1CC=C(n2c(=O)[nH]c3ccccc32)CC1)c1ccc(F)cc1` [droperidol], the “duration of action / effect” value in data set [4] (following administration, route not stated) is ≤ 24 h. For the same compound, the “prevention of PONV” value in data set [2] (5 μg/kg i.v. 1 hour before end of anesthesia, children 11 to 15 years) is “effective in preventing PONV”. Besides, the “best anti-emetic effectiveness among groups” value in data set [2] (1.25 mg dose (Fortney)) is on record as “best anti-emetic effectiveness”. The “prevention of PONV versus i.v. droperidol 1.25 mg or ondansetron 4 mg” value in data set [2] (i.v. 0.625 mg at start of anesthesia, outpatient gynecological operations) is “as effective”. Moreover, the “PONV prevention, low versus higher dose” value in data set [2] (i.v. 0.625 mg immediately following intubation) is “as effective as intravenous droperidol 1.25 mg”. The “prevention of PONV versus comparators” value in data set [2] (i.v. 1.25 mg before end of general anesthesia, female patients, elective orthopaedic surgery) is “significantly superior to intravenous metoclopromide 10 mg and a saline placebo”; in data set [2] (i.v. 1.25 mg immediately before end of anesthesia, day-stay and major gynaecological surgery), “superior to intravenous metoclopramide 10 mg, intravenous domperidone 5 mg and an intravenous saline placebo”. Also, the “patients with no emesis versus i.v. ondansetron 8 mg” value in data set [2] (i.v. 2.5 mg, women, inpatient minor gynaecological surgery) is “more patients”. Besides, the “prevention of PONV symptoms” value in data set [2] is given as “failed to prevent any PONV symptoms”. Besides, in data set [2] (intramuscular 5 mg), the “anti-emetic effectiveness versus haloperidol” value is “equivalent anti-emetic effectiveness to intramuscular haloperidol 2 mg”. Besides, the “sedation or other adverse effects” value in data set [3] (1.25 mg dose (Fortney)) is listed as “no increase in sedation or other adverse effects”; in data set [3] (i.v. 0.625 mg or 1.25 mg, outpatient gynecological operations), “no increase in sedation or other adverse effects”. In addition, in data set [3], the “Adverse Effect” value is “Sedation, EPS,”. Also, in data set [3] (i.v. 0.625 mg and 1.25 mg), the “adverse effects (dystonic reactions, EPS, sedation)” value was “few adverse effects”. Besides, in data set [3] (i.v. 1.25 mg at the end of gynaecological surgery (Purhonen)), the anxiety and drowsiness entry is “increase in anxiety and drowsiness”. The “adverse effects versus studies with dose less than 2.5 mg” value in data set [3] (i.v. 2.5 mg) was “more adverse effects (i.e. sedation, dizziness)”. Moreover, the “sedation, droperidol versus ondansetron groups” value in data set [3] is listed as “no difference”.

With `CN1C2CCCC1CC(NC(=O)c1nn(C)c3ccccc13)C2` (stereo not drawn) [granisetron, Granisetron], the “PONV prevention versus comparators” value in data set [2] (40 μg/kg immediately prior to induction, women during menstruation (Fujii)) is “more effective than droperidol 25 μg/kg or metoclopramide 0.2 mg/kg”; in data set [2] (i.v. 2.5 mg immediately prior to anesthesia, history of postoperative emesis and motion sickness), “more effective than droperidol 1.25 mg or metoclopramide 10 mg”. Besides, the “optimal dose for PONV prevention” value in data set [2] (adults and children, intravenous, other studies) was 0.04 mg/kg. In addition, the “optimum effective prophylactic dose” value in data set [2] (adults, i.v. immediately before the start of anesthesia, 0.1, 1 and 3 mg compared) is reported as 1 mg. Further, in data set [2] (i.v. ondansetron 4 mg), the “PONV prevention versus metoclopramide 10 mg or placebo” value is recorded as “significantly greater anti-emetic effectiveness than metoclopramide or placebo”. In data set [3], the “Adverse Effect” value is given as “Headache, dizziness”.

Turning to `O=C(O[C@@H]1C[C@@H]2C[C@H]3C[C@H](C1)N2CC3=O)c1c[nH]c2ccccc12` [dolasetron, Dolasetron], the “clearance and half-life in children compared with young healthy adult volunteers” value in data set [4] (children) was “increased clearance and a shorter half-life”. In addition, the elimination half-life in data set [4] (parent compound) was 9 min.

As to `CN1CCN(C(c2ccccc2)c2ccccc2)CC1` [cyclizine, Cyclizine], in data set [3], the “Adverse Effect” value is “Sedation, dry mouth,”.

Take `CN(C)CCCN1c2ccccc2Sc2ccc(Cl)cc21` [chlorpromazine]: the “Adverse Effect” value in data set [3] is “Sedation, EPS, hypotension,”.

On to `O=C(OC1CC2CC3CC(C1)N2CC3O)c1c[nH]c2ccccc12` (stereo not drawn) [hydrodolasetron], for which the “share of the anti-emetic effect” value in data set [4] (active metabolite of dolasetron) was 87%. Further, the values for the mean half-life in data set [4] (intravenous form) and in data set [4] (oral form) were ~8.3 h and “approximately 7.1 hours”, respectively.

With `CN1[C@@H]2CC[C@H]1C[C@@H](OC(=O)c1c[nH]c3ccccc13)C2` [tropisetron, Tropisetron], where the note is “single agent, first study”, the patients with response result was “about 80%”. For the same compound, the “optimal effective dose for treatment of PONV” value in data set [1] (intravenous, abdominal and non-abdominal surgeries (Alon)) is on record as 2 mg. Besides, the “prevention of PONV” value in data set [2] (5 mg i.v. before start of anesthesia, breast and gynaecological surgery) is “effective for prevention of PONV”. Besides, in data set [2] (i.v. ondansetron 4 mg), the “PONV prevention versus metoclopramide 10 mg or placebo” value is “significantly greater anti-emetic effectiveness than metoclopramide or placebo”. In addition, in data set [2], the “prevention of PONV symptoms” value is “effectively prevented vomiting, but not nausea and retching”. In addition, the “Adverse Effect” value in data set [3] is “Headache, dizziness”.

Regarding `CN1[C@@H]2C[C@@H](OC(=O)[C@H](CO)c3ccccc3)C[C@H]1[C@@H]1O[C@@H]12` [scopolamine, Scopolamine], the “Adverse Effect” value in data set [3] was “Sedation, dry mouth,”.

On to `Cc1ncc2n1-c1ccc(Cl)cc1C(c1ccccc1F)=NC2` [midazolam, Midazolam], for which the “prevention of vomiting after tonsillectomy” value in data set [2] (75 μg/kg i.v. after induction of anesthesia, children) is listed as “effective for the prevention of vomiting”.

As to `O=C(CCCN1CCC(O)(c2ccc(Cl)cc2)CC1)c1ccc(F)cc1` [haloperidol], in data set [4] (intramuscular), the duration of action entry was “approximately 12 hours” and the “onset time / onset of action” value is listed as “approximately 30 minutes”. In addition, the “effectiveness in PONV” value in data set [2] (7 μg/kg i.v. and 0.5 to 4.0 mg i.m. for prevention, 1 mg i.m. for treatment) is “effective in PONV, with little sedative effect”. For the same compound, the “Adverse Effect” value in data set [3] was “Sedation, EPS,”.
